Holding throughout (assay type): binding
In assay [1] the target is Recombinant human integrin α5β1 (Homo sapiens (Human), UniProt P05556+P08648). Nature of the assay: Solid Phase Receptor Assay (SPRA) for α5β1 function. The following applies: fibronectin-coated plate. As to the method: 1. Solid Phase Receptor Assay (SPRA) for α5β1 Function
Purified human fibronectin (R&D Systems, 1918-FN) diluted to 2 μg/mL in TBS+ buffer (25 mM Tris pH 7.4, 137 mM NaCl, 2.7 mM KCl, 1 mM CaCl2, 1 mM MgCl2, 1 mM MnCl2) was added to wells (50 μL/well) of a 96-well half-well transparent microtiter plate (Greiner 675061) and incubated overnight at 4° C. Wells were washed 3 times with 150 μL TBS+ and 150 μL of blocking buffer (TBS+ with 1% bovine serum albumin, Sigma A7906) were added. The plate was incubated for 1 hr at 37° C. and then washed 3× with TBS+ buffer. Recombinant human integrin α5β1 (R&D Systems, 3230-A5) was diluted to 0.1 μg/mL in TBS+/0.1% bovine serum albumin. Compounds were diluted 1:100 into the integrin solution and then 50 μL added to empty wells of the washed fibronectin-coated plate according to a standard template with each sample repeated in triplicate. After incubation for two hours at room temperature, the plate was washed 3× with 150 μL of TBS+ buffer. To each well, 50 μl of biotinylated anti-α5 antibody (R&D Systems, BAF1864) at 0.5 μg/mL in TBS+/0.1% BSA were added and the plate covered and incubated for 1 hr at room temperature. After washing the plate 3× with 150 μL of TBS+ buffer, 50 μL of streptavidin-conjugated horseradish peroxidase (R&D Systems, DY998) diluted in TBS+ blocking buffer were added to the wells and the plate incubated for 20 min at room temperature. The plate was washed 3× with TBS+ buffer followed by 50 μL of room temperature TMB substrate (Sigma, T444) added to each well and the plate incubated for 20 min at room temperature. Plates were read by colorimetric detection at 650 nm wavelength using a Tecan Safire II plate reader. Concentration-response curves were constructed by non-linear regression (best fit) analysis, and IC50 values were calculated for each compound.

The target of assay [2] is Recombinant human integrin αvβ5 (Homo sapiens (Human), UniProt P06756+P18084). Nature of the assay: Solid Phase Receptor Assay (SPRA) for αvβ5 function. The following applies: vitronectin-coated plate. As to the method:
4. Solid Phase Receptor Assay (SPRA) for αvβ5 Function
Recombinant human vitronectin (R&D Systems, 2308-VN) at 0.25 μg/mL in TBS+ buffer (25 mM Tris pH 7.4, 137 mM NaCl, 2.7 mM KCl, 1 mM CaCl2, 1 mM MgCl2, 1 mM MnCl2) was added to wells (50 μL/well) of a 96-well half-well transparent microtiter plate (Greiner 675061) and incubated overnight at 4° C. Wells were washed 3 times with 150 μL TBS+ and 150 μL of blocking buffer (TBS+ with 1% bovine serum albumin, Sigma A7906) were added. The plate was incubated for 1 hr at 37° C. and then washed 3× with TBS+ buffer. Recombinant human integrin αvβ5 (R&D Systems, 2528-AV) was diluted to 0.1 μg/mL in TBS+/0.1% bovine serum albumin. Compounds were diluted 1:100 into the integrin solution and then 50 μL added to empty wells of the washed vitronectin-coated plate according to a standard template with each sample repeated in triplicate. After incubation for two hours at room temperature, the plate was washed 3× with 150 μL of TBS+ buffer. To each well, 50 μl of biotinylated anti-αv antibody (R&D Systems, BAF1219) at 0.5 μg/mL in TBS+/0.1% BSA at 0.5 μg/mL were added and the plate covered and incubated for 1 hr at room temperature. After washing the plate 3× with 150 μL of TBS+ buffer, 50 μL of streptavidin-conjugated horseradish peroxidase (R&D Systems DY998) diluted in TBS+ blocking buffer were added to the wells and the plate incubated for 20 min at room temperature. The plate was washed 3× with TBS+ buffer followed by 50 μL of TMB substrate (Sigma T4444) added to each well and the plate incubated for 20 min at room temperature. Plates were read by colorimetric detection at 650 nm wavelength using a Tecan Safire II plate reader. Concentration-response curves were constructed by non-linear regression (best fit) analysis, and IC50 values were calculated for each compound.

Assay [3] has as its target Recombinant human integrin αvβ1 (Homo sapiens (Human), UniProt P05556+P06756). Nature of the assay: Solid Phase Receptor Assay (SPRA) for αvβ1 function. The following applies: fibronectin-coated plate. As to the method:
2. Solid Phase Receptor Assay (SPRA) for αvβ1 Function
Purified human fibronectin (R&D Systems, 1918-FN) diluted to 5 μg/mL in TBS+ buffer (25 mM Tris pH 7.4, 137 mM NaCl, 2.7 mM KCl, 1 mM CaCl2, 1 mM MgCl2, 1 mM MnCl2) was added to wells (50 μL/well) of a 96-well half-well transparent microtiter plate (Greiner 675061) and incubated overnight at 4° C. Wells were washed 3 times with 150 μL TBS+ and 150 μL of blocking buffer (TBS+ with 1% bovine serum albumin, Sigma A7906) were added. The plate was incubated for 1 hr at 37° C. and then washed 3× with TBS+ buffer. Recombinant human integrin αvβ1 (R&D Systems. 6579-AV) was diluted to 2.0 μg/mL in TBS+/0.1% bovine serum albumin. Compounds were diluted 1:100 into the integrin solution and 50 μL added to empty wells of the washed fibronectin-coated plate according to a standard template with each sample repeated in triplicate. After incubation for two hours at room temperature, the plate was washed 3× with 150 μL of TBS+ buffer. To each well, 50 μL of biotinylated anti-αv antibody (R&D Systems, BAF1219) at 1 μg/mL in TBS+/0.1% BSA were added and the plate covered and incubated for 1 hr at room temperature. After washing the plate 3× with 150 μL of TBS+ buffer, 50 μL of streptavidin-conjugated horseradish peroxidase (R&D Systems, DY998) diluted in TBS+ blocking buffer were added to the wells and the plate incubated for 20 min at room temperature. The plate was washed 3× with TBS+ buffer followed by 50 μL of TMB substrate (Sigma, T4444) added to each well and the plate incubated for 20 min at room temperature. Plates were read by colorimetric detection at 650 nm wavelength using a Tecan Safire II plate reader. Concentration-response curves were constructed by non-linear regression (best fit) analysis, and IC50 values were calculated for each compound.

Chain of Recombinant human integrin αvβ5 (P06756 31-992): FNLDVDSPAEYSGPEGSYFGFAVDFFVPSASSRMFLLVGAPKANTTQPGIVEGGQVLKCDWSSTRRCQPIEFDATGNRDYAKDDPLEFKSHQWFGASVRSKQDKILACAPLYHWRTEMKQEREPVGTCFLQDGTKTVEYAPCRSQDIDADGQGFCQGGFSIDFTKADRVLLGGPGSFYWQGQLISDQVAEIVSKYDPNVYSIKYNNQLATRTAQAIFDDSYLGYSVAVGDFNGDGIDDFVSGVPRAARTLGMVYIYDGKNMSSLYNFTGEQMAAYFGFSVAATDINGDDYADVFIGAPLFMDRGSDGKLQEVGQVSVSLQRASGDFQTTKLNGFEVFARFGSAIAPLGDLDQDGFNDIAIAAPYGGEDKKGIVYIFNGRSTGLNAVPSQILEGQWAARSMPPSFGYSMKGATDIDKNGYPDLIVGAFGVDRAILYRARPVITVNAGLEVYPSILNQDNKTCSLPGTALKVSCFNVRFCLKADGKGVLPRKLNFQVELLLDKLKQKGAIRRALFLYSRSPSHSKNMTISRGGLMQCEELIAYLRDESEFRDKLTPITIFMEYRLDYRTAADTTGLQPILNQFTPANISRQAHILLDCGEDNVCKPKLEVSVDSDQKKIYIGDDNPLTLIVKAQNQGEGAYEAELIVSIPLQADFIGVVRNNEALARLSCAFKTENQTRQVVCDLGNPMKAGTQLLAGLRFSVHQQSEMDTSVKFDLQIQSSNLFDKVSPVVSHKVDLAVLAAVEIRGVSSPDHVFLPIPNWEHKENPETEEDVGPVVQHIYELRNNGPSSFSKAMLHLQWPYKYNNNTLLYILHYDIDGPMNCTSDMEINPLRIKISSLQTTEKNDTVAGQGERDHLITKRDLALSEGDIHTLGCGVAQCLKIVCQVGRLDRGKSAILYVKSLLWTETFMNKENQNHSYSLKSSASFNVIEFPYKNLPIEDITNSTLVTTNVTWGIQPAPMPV
Chain of Recombinant human integrin αvβ5 (P18084 24-719): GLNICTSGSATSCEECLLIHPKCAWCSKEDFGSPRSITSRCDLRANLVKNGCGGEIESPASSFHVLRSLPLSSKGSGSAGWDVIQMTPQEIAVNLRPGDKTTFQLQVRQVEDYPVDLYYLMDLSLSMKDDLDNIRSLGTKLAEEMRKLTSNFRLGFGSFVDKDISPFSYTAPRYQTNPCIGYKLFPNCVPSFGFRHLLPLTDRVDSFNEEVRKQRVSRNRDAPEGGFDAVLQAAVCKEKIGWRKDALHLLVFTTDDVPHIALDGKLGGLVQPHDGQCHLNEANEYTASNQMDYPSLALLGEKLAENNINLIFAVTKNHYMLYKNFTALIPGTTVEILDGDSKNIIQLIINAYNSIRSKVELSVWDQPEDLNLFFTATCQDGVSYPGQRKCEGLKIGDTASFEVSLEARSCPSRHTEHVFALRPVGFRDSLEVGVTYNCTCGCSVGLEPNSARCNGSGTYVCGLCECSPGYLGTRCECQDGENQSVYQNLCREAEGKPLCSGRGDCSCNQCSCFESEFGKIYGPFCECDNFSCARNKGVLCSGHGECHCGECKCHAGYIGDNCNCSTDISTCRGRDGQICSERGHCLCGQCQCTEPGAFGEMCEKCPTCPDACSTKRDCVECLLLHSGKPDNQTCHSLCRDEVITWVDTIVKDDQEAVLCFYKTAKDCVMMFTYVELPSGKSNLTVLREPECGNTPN
Chain of Recombinant human integrin αvβ1 (P06756 31-992): as the sequence (P06756 31-992) above
Chain of Recombinant human integrin αvβ1 (P05556 21-728): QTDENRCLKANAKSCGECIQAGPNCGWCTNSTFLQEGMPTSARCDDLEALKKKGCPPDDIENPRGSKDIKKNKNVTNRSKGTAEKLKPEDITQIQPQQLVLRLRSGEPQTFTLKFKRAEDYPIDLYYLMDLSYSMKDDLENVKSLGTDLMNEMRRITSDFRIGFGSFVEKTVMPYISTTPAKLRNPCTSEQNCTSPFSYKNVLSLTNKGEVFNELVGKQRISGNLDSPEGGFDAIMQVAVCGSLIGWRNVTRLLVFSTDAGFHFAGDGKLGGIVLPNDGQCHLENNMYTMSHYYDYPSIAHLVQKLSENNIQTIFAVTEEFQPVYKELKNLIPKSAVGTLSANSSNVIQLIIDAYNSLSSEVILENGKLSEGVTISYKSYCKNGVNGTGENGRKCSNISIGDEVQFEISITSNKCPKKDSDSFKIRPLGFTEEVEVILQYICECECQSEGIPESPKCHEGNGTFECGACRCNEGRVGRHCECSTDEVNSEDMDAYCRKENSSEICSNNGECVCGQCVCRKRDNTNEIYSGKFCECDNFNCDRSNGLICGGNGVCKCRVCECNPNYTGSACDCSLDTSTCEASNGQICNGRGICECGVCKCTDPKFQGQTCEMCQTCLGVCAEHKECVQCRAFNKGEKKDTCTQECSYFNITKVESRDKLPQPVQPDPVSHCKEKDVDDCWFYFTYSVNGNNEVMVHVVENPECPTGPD
Chain of Recombinant human integrin α5β1 (P08648 42-995): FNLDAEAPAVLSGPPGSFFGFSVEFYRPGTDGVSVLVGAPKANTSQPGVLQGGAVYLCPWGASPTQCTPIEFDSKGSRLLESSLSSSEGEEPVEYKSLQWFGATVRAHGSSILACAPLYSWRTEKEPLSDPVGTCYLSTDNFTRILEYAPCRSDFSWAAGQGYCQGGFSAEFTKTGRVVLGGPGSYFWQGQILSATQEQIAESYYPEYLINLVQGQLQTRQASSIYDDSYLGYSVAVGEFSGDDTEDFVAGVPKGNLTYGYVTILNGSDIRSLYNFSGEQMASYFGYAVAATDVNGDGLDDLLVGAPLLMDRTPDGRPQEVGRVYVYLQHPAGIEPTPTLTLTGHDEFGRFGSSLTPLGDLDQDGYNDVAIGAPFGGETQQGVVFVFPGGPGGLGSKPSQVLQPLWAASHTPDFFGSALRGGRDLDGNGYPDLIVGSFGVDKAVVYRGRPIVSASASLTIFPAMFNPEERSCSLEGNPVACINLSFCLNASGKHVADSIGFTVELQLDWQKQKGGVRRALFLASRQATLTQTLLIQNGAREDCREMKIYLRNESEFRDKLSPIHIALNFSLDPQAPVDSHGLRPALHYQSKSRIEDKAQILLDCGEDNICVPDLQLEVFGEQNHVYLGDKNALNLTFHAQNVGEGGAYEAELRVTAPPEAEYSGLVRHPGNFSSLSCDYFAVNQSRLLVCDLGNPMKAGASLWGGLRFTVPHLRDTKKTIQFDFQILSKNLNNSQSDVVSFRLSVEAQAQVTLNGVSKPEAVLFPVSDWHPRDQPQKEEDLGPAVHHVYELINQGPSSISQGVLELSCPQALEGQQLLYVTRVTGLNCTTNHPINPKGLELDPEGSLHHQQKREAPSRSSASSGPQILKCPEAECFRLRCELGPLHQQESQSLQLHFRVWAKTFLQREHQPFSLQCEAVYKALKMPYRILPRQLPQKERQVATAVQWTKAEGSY
Chain of Recombinant human integrin α5β1 (P05556 21-728): as the sequence (P05556 21-728) above

`O=C(O)C[C@H](NC(=O)CNC(=O)c1cncc(NC2=NCC(O)CN2)c1)c1cc(Br)cc(Br)c1` (stereo partly drawn) [Example 14, (3S)-3-(3,5-dibromophenyl)-3-[[2-[[5-[(5-hydroxy-1,4,5,6-tetrahydropyrimidin-2-yl)amino]pyridine-3-carbonyl]amino]acetyl]amino]propanoic acid]: the IC50 (usually the point on the concentration scale where inhibition reaches its midpoint) is 0.6 nM in assay [1], 0.1 nM in assay [2] and 0.7 nM in assay [3].

Consider `O=C(O)C[C@H](NC(=O)CNC(=O)c1cc(O)cc(NC2=NCC(O)CN2)c1)c1cc(Cl)cc(Cl)c1` (stereo partly drawn) [Example 15, (3S)-3-[3,5-dichloro-phenyl)-3-(2-(3-hydroxy-5-((5-hydroxy-1,4,5,6-tetrahydropyrimidin-2-yl)amino)benzamido)acetamido)propanoic acid], for which the IC50 in assay [1] was 1 ± 0.3 nM; in assay [2], 0.3 nM; in assay [3], 4 ± 1 nM.

`O=C(O)C[C@H](NC(=O)CNC(=O)c1cc(O)cc(NC2=NCC(O)CN2)c1)c1cc(Cl)cc(OC(F)(F)F)c1` (stereo partly drawn) [Example 16, (3S)-3-[3-chloro-5-(trifluoromethoxy)phenyl)-3-(2-(3-hydroxy-5-((5-hydroxy-1,4,5,6-tetrahydropyrimidin-2-yl)amino)benzamido)acetamido)propanoic acid]: the IC50 in assay [1] was 1 ± 0.4 nM; in assay [2], 0.6 nM; in assay [3], 3 ± 2 nM.

Regarding `O=C(O)C[C@H](NC(=O)CNC(=O)c1cc(O)cc(NC2=NCC(O)CN2)c1)c1cc(Br)cc(OC(F)(F)F)c1` (stereo partly drawn) [Example 17, (3S)-3-(3-bromo-5-(trifluoromethoxy)phenyl)-3-(2-(3-hydroxy-5-((5-hydroxy-1,4,5,6-tetrahydropyrimidin-2-yl)amino)benzamido)acetamido)propanoic acid], the IC50 was 1 ± 0.1 nM in assay [1], 0.6 nM in assay [2] and 4 ± 2 nM in assay [3].

Turning to `O=C(O)C[C@H](NC(=O)CNC(=O)c1cc(O)cc(NC2=NCC(O)CN2)c1)c1cc(Cl)cc(Br)c1O` (stereo partly drawn) [Example C1, reference compound], the IC50 came out at 16 ± 9 nM in assay [1], 3 ± 1 nM in assay [2] and 17 ± 2 nM in assay [3].

For the molecule `O=C(O)C[C@H](NC(=O)CNC(=O)c1cc(O)cc(NC2=NCC(O)CN2)c1)c1ccccc1` (stereo partly drawn) [Example C2, reference compound], the results for the IC50 in assay [1], in assay [2] and in assay [3] were 8 nM, 0.4 nM and 5 nM, respectively.

Turning to `O=C(O)CC(NC(=O)CNC(=O)c1cc(O)cc(NC2=NCC(O)CN2)c1)c1cc(Cl)cc(Cl)c1O` (stereo not drawn) [Example C3, reference compound], the values for the IC50 in assay [1], in assay [2] and in assay [3] were 40 nM, 2 nM and 7 nM, respectively.

Regarding `Cc1cc(C)cc(C(CC(=O)O)NC(=O)CNC(=O)c2cccc(NC(=N)N)c2)c1` (stereo not drawn) [Example C4, reference compound], the IC50 in assay [1] was found to be 7 nM; in assay [2], 2 nM; in assay [3], 10 nM.

With `N=C(N)Nc1cccc(C(=O)NCC(=O)NC(CC(=O)O)c2ccccc2)c1` (stereo not drawn) [Example C5, reference compound], the IC50 was 24 nM in assay [1], 1 nM in assay [2] and 17 ± 5 nM in assay [3].

For `Cc1ccc(O)c(C(CC(=O)O)NC(=O)CNC(=O)c2cc(O)cc(NC3=NCC(O)CN3)c2)c1` (stereo not drawn) [Example C6, reference compound], the results for the IC50 in assay [1], in assay [2] and in assay [3] were 7 ± 4 nM, 1 nM and 8 ± 6 nM, respectively.

In the case of `O=C(O)CC(NC(=O)CNC(=O)c1cc(O)cc(NC2=NCC(O)CN2)c1)c1cc(Br)cc(Br)c1O` (stereo not drawn) [Example C7, reference compound], the IC50 stood at 59 nM in assay [1], 25 nM in assay [2] and 101 nM in assay [3].

On to `Cc1ccc(O)c(C(CC(=O)O)NC(=O)CNC(=O)c2cccc(NC(=N)N)c2)c1` (stereo not drawn) [Example C8, reference compound], for which the values for the IC50 in assay [1], in assay [2] and in assay [3] were 38 nM, 5 nM and 13 nM, respectively.

For the molecule `N=C(N)Nc1cccc(C(=O)NCC(=O)NC(CC(=O)O)c2cc(F)cc(C(F)(F)F)c2)c1` (stereo not drawn) [Example C9, reference compound], the IC50 turned out to be 8 ± 3 nM in assay [1], 0.4 nM in assay [2] and 5 ± 2 nM in assay [3].

Regarding `Cc1cc(Cl)cc([C@@H](CC(=O)O)NC(=O)CNC(=O)c2cc(O)cc(NC3=NCC(O)CN3)c2)c1O` (stereo partly drawn) [Example C10, reference compound], the results for the IC50 in assay [1], in assay [2] and in assay [3] were 18 nM, 2 nM and 14 ± 8 nM, respectively.

As for `Cc1cc(Cl)cc([C@@H](CC(=O)O)NC(=O)CNC(=O)c2cccc(NC3=NCCN3)c2)c1O` [Example C11, reference compound], the concentration for half-maximal inhibition (IC50) in assay [1] stood at 33 nM; in assay [2], 2 nM; in assay [3], 16 ± 4 nM.

For the origin of these results see patent publication US10035778B2, “Meta-azacyclic amino benzoic acid derivatives as pan integrin antagonists” (Saint Louis University, priority 2015, dated 2018).
